Measured values published in PubChem BioAssay (NCI).
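GI50 = concentration required for 50% inhibition of growth. TGI denotes the concentration required for complete inhibition of growth.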

Assays:
Assay in all cases: DTP human tumour cell line panel, 384-well format
[1] = tested on: 786-0 renal
[2] = tested on: LOX IMVI melanoma
[3] = tested on: RPMI-8226 leukemia
[4] = tested on: MDA-MB-231 breast
[5] = tested on: SK-MEL-2 melanoma
[6] = tested on: SN12C renal
[7] = tested on: HCC-2998 colon
[8] = tested on: DU-145 prostate
[9] = tested on: MDA-MB-435 melanoma
[10] = tested on: TK-10 renal
[11] = tested on: MOLT-4 leukemia
[12] = tested on: HT29 colon
[13] = tested on: HOP-92 NSCLC
[14] = tested on: NCI-H522 lung
[15] = tested on: SF-539 CNS
[16] = tested on: UACC-257 melanoma
[17] = tested on: OVCAR-8 ovarian
[18] = tested on: K-562 leukemia
[19] = tested on: HCT-15 colon
[20] = tested on: PC-3 prostate
[21] = tested on: IGROV1 ovarian
[22] = tested on: A498 renal
[23] = tested on: M14 melanoma
[24] = tested on: SNB-19 CNS
[25] = tested on: NCI-H226 lung
[26] = tested on: SNB-75 CNS
[27] = tested on: SR leukemia
[28] = tested on: MDA-MB-468 breast
[29] = tested on: NCI-H322M lung
[30] = tested on: HS 578T breast
[31] = tested on: BT-549 breast
[32] = tested on: HCT-116 colon
[33] = tested on: T-47D breast
[34] = tested on: SK-MEL-5 melanoma
[35] = tested on: NCI-H23 lung
[36] = tested on: MALME-3M melanoma
[37] = tested on: U251 glioblastoma
[38] = tested on: OVCAR-3 ovarian
[39] = tested on: ACHN renal
[40] = tested on: HOP-62 NSCLC
[41] = tested on: SW-620 colon
[42] = tested on: HL-60(TB) leukemia
[43] = tested on: EKVX NSCLC
[44] = tested on: UACC-62 melanoma
[45] = tested on: SF-295 CNS
[46] = tested on: KM12 colon
[47] = tested on: SK-MEL-28 melanoma

## CC[C@H](Nc1ncnc2nc[nH]c12)c1oc2ccccc2c(=O)c1-c1cccc(F)c1
[1]
  GI50: 27.2 µM
  TGI: > 95 µM
[2]
  GI50: 26.3 µM
  TGI: 82.1 µM
[3]
  GI50: 8.38 µM
  TGI: 20.5 µM
[4]
  GI50: 26.2 µM
  TGI: > 100 µM
[5]
  GI50: 13.7 µM
  TGI: 30.1 µM
[6]
  GI50: 30.5 µM
  TGI: 98.9 µM
[7]
  GI50: 32.6 µM
  TGI: 80 µM
[8]
  GI50: 29.6 µM
  TGI: > 100 µM
[9]
  GI50: 24.2 µM
  TGI: 56.5 µM
[10]
  GI50: 29.8 µM
  TGI: > 95.2 µM
[11]
  GI50: 15.8 µM
  TGI: 29.6 µM
[12]
  GI50: 32.3 µM
  TGI: > 100 µM
[13]
  GI50: 14.6 µM
  TGI: 39.1 µM
[14]
  GI50: 20.6 µM
  TGI: 47.7 µM
[15]
  GI50: 45.9 µM
  TGI: > 100 µM
[16]
  GI50: 33 µM
  TGI: > 87.9 µM
[17]
  GI50: 32.6 µM
  TGI: > 100 µM
[18]
  GI50: 26.5 µM
  TGI: > 96.6 µM
[19]
  GI50: 30.7 µM
  TGI: 99.1 µM
[20]
  GI50: 18.5 µM
  TGI: 52.6 µM
[21]
  GI50: 24.1 µM
  TGI: 59.2 µM
[22]
  GI50: 27.8 µM
  TGI: > 100 µM
[23]
  GI50: 37.7 µM
  TGI: > 100 µM
[24]
  GI50: 37.1 µM
  TGI: > 100 µM
[25]
  GI50: 23.8 µM
  TGI: 83 µM
[26]
  GI50: 23.2 µM
  TGI: 60.7 µM
[27]
  GI50: 12.4 µM
  TGI: 25.2 µM
[28]
  GI50: 9.6 µM
  TGI: 27.2 µM
[29]
  GI50: 90.5 µM
  TGI: > 100 µM
[30]
  GI50: 15.1 µM
  TGI: 37.2 µM
[31]
  GI50: 15.5 µM
  TGI: 39.5 µM
[32]
  GI50: 36.9 µM
  TGI: > 100 µM
[33]
  GI50: 24.4 µM
  TGI: > 86.2 µM
[34]
  GI50: 17.9 µM
  TGI: 39.7 µM
[35]
  GI50: 23.9 µM
  TGI: 78.3 µM
[36]
  GI50: 23.6 µM
  TGI: 62.8 µM
[37]
  GI50: 31 µM
  TGI: > 100 µM
[38]
  GI50: 18.2 µM
  TGI: 40.8 µM
[39]
  GI50: 23.2 µM
  TGI: 77.5 µM
[40]
  GI50: 30.1 µM
  TGI: > 100 µM
[41]
  GI50: 48.7 µM
  TGI: > 81.2 µM
[42]
  GI50: 21.8 µM
  TGI: 36.6 µM
[43]
  GI50: 23.8 µM
  TGI: 70.7 µM
[44]
  GI50: 16.3 µM
  TGI: 36.8 µM
[45]
  GI50: 20.7 µM
  TGI: > 74.6 µM
[46]
  GI50: 36.8 µM
  TGI: > 100 µM
[47]
  GI50: 27.7 µM
  TGI: > 86.1 µM
